Key:
[1] = molecular target: cellular kallikrein activity (Homo sapiens (Human), UniProt P03952); assay: In vitro cellular assay (contact assay): kallikrein activity in ellagic acid-activated human plasma, Z-FR-2-AMC substrate; type: biochemical; settings: human plasma activated with ellagic acid, 37° C.
human plasma kallikrein = human plasma kallikrein (Homo sapiens (Human), UniProt P03952); assay: In vitro enzyme inhibition of human plasma kallikrein (PFR-AMC cleavage); type: biochemical; settings: Pro-Phe-Arg-AMC substrate, 37° C., read-out: hPK IC50
Procedure, shortened: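 Human plasma kallikrein and compound, diluted in 50 mM Tris-HCl pH 7.5, 150 mM NaCl, 0.01% Triton X-100, preincubated 5 min at 37 °C before PFR-AMC was added.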

Chain of cellular kallikrein activity (P03952 391-638): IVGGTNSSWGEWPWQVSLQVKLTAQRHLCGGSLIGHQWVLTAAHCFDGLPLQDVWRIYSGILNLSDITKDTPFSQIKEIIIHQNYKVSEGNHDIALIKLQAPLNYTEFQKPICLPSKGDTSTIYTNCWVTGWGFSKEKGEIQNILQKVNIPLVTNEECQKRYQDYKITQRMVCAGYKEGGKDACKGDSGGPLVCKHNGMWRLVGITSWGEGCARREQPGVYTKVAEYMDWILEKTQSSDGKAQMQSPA
Chain of cellular kallikrein activity (P03952 20-390 partner): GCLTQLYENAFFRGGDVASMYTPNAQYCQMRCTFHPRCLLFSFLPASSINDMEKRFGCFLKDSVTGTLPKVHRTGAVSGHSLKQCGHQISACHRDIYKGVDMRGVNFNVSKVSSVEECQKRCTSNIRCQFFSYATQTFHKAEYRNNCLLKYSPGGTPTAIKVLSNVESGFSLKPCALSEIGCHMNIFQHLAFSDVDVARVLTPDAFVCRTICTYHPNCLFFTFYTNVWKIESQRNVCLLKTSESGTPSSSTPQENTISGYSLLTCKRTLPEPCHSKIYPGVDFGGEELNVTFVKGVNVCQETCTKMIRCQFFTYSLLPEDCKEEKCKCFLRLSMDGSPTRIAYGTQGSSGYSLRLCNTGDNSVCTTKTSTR
Chain of human plasma kallikrein (P03952 391-638): as the sequence (P03952 391-638) above
Chain of human plasma kallikrein (P03952 20-390 partner): as the sequence (P03952 20-390 partner) above

Row | Structure (SMILES) | EC50 [1] | IC50 (human plasma kallikrein)
1 | Cc1cc(N)nc(C)c1CNC(=O)c1ccnc(Cc2ccc3ncc(C4CC4)cc3c2)c1 [Example 243, N-((6-amino-2,4-dimethylpyridin-3-yl)methyl)-2-((3-cyclopropylquinolin-6-yl)methyl)isonicotinamide] | < 100 nM | < 100 nM
2 | Cc1nc(N)ccc1CNC(=O)c1ccnc(Cc2cc3cc(Cl)cnc3cn2)c1 [Example 149, N-((6-amino-2-methylpyridin-3-yl)methyl)-2-((3-chloro-1,7-naphthyridin-6-yl)methyl)isonicotinamide] | < 100 nM | < 100 nM
3 | COc1cnc2ccc(Cc3cc(C(=O)NCc4c(C)cc(N)nc4C)ccn3)cc2c1 [Example 264, N-((6-amino-2,4-dimethylpyridin-3-yl)methyl)-2-((3-methoxyquinolin-6-yl)methyl)isonicotinamide] | < 100 nM | < 100 nM
4 | Cc1cc(N)nc(C)c1CNC(=O)c1ccnc(Cc2cc(CN)c3ncc(Cl)cc3c2)c1 [Example 241, N-((6-amino-2,4-dimethylpyridin-3-yl)methyl)-2-((8-(aminomethyl)-3-chloroquinolin-6-yl)methyl)isonicotinamide] | < 100 nM | < 100 nM
5 | CC(C)(O)c1cc(Cc2cc(C(=O)NCc3cnc4[nH]cc(Cl)c4c3)ccn2)cc2cc(Cl)cnc12 [Example 223, N-((3-chloro-1H-pyrrolo[2,3-b]pyridin-5-yl)methyl)-2-((3-chloro-8-(2-hydroxypropan-2-yl)quinolin-6-yl)methyl)isonicotinamide] | < 100 nM | < 100 nM
6 | Cc1nc(N)ccc1CNC(=O)c1ccnc(Cc2cc(S(N)(=O)=O)c3ncc(Cl)cc3c2)c1 [Example 236] | < 100 nM | < 100 nM
7 | Cc1cnc2c(S(N)(=O)=O)cc(Cc3cc(C(=O)NCc4n[nH]c5ccc(Cl)cc45)ccn3)cc2c1 [Example 288, N-((5-chloro-1H-indazol-3-yl)methyl)-2-((3-methyl-8-sulfamoylquinolin-6-yl)methyl)isonicotinamide] | 100 to 1000 nM | < 100 nM
8 | Cc1cnc2c(S(N)(=O)=O)cc(Cc3cc(C(=O)NCc4ccc5[nH]cc(Cl)c5c4F)ccn3)cc2c1 [Example 290, N-((3-chloro-4-fluoro-1H-indol-5-yl)methyl)-2-((3-methyl-8-sulfamoylquinolin-6-yl)methyl)isonicotinamide] | 100 to 1000 nM | < 100 nM
9 | Cc1cc(N)nc(C)c1CNC(=O)c1ccnc(C(O)c2ccc3ncc(Cl)cc3c2)c1 (stereo not drawn) [Example 275, N-((6-amino-2,4-dimethylpyridin-3-yl)methyl)-2-((3-chloroquinolin-6-yl)(hydroxy)methyl)isonicotinamide] | 100 to 1000 nM | < 100 nM
10 | Cc1cc(N)nc(C)c1CNC(=O)c1cc(Cc2ccc3ncc(Cl)cc3c2)nc(C(C)(C)O)c1 [Example 210, N-((6-amino-2,4-dimethylpyridin-3-yl)methyl)-2-((3-chloroquinolin-6-yl)methyl)-6-(2-hydroxypropan-2-yl)isonicotinamide] | < 100 nM | < 100 nM
11 | Cc1nc(N)ccc1CNC(=O)c1ccnc(Cc2ccc3ncc(C(F)(F)F)cc3c2)c1 [Example 229, N-((6-amino-2-methylpyridin-3-yl)methyl)-2-((3-(trifluoromethyl)quinolin-6-yl)methyl)isonicotinamide] | < 100 nM | < 100 nM
12 | Cc1cc(N)nc(C)c1CNC(=O)c1ccnc(C(C)(O)c2ccc3ncc(Cl)cc3c2)c1 (stereo not drawn) [Example 277, N-((6-amino-2,4-dimethylpyridin-3-yl)methyl)-2-(1-(3-chloroquinolin-6-yl)-1-hydroxyethyl)isonicotinamide] | 100 to 1000 nM | 100 to 1000 nM
